Legend:
Format in all cases: in vivo
db/db mice [1] = assay: Serum insulin by Elisa in db/db mice (Example 4); details: single agent 0.2 g/kg per day by gavage, two weeks, mean ± SD
Excerpt: (§1) Effects of limonoid compound, acarbose or combination thereof on blood glucose and insulin in mouse type II diabetes model
(§2) In the present embodiment, the limonoid compound was selected from nomilin, deacetylnomilin, nomilin acid, deacetylnomilin acid glycoside, and acarbose single administration group, nomilin single administration group, deacetylnomilin single administration group, nomilin acid single administered group, deacetylnomilin acid glycoside single administration group, and respective combination thereof with acarbose administration groups were set.
(§3) Conditions for experimental feeding: as type II diabetes model mice, 6-week-old SPF-grade db/db mice were purchased from the Nanjing Model Biology Institute, and subjected to experimental feeding after 7 days of preliminary feeding. It should be noted that the conditions for raising the mice were as follows: the temperature was 23±1° C., the humidity was 55±10%, the lights were turned on between 7 am and 7 pm (the lights were turned off at other time), and the mice were allowed to freely take in water and feed. The experimental feed was mouse growth-stable feed (GB M2118), and the daily feeding and management of the animals were under the responsibility of the animal security department, which provided the animals with sufficient diet and fresh drinking water daily. […]

db/db mice [2] = assay: Blood glucose in mouse type II diabetes model, db/db mice (Example 4); details: single agent 0.2 g/kg per day by gavage, two weeks, 1 h after last administration, mean ± SD
Excerpt: as §1, §2
Conditions for experimental feeding: as type II diabetes model mice, 6-week-old SPF-grade db/db mice were purchased from the Nanjing Model Biology Institute, and subjected to experimental feeding after 7 days of preliminary feeding. […]
Gavage doses: nomilin at a dose of 0.2 g/kg was gavaged per day for the nomilin group, deacetylnomilin at a dose of 0.2 g/kg was gavaged per day for the deacetylnomilin group, nomilin acid at a dose of 0.2 g/kg was gavaged per day for the nomilin acid group, deacetylnomilin acid glycoside at a dose of 0.2 g/kg was gavaged per day for the deacetylnomilin acid glycoside group, acarbose at a dose of 0.2 g/kg was gavaged per day for the acarbose group, nomilin at a dose of 0.1 g/kg and acarbose at a dose of 0.1 g/kg were simultaneously gavaged per day for the nomilin combination group, nomilin acid at a dose of 0.1 g/kg and acarbose at a dose of 0.1 g/kg were simultaneously gavaged per day for the nomilin acid combination group, deacetylnomilin at a dose of 0.1 g/kg and acarbose at a dose of 0.1 g/kg were simultaneously gavaged per day for the deacetylnomilin combination group, deacetylnomilin acid glycoside at a dose of 0.1 g/kg and acarbose at a dose of 0.1 g/kg were simultaneously gavaged per day for the deacetylnomilin acid glycoside combination group, the gavage volume was 10 mL/kg, and the normal group and the model group were administrated with 10 mL/kg of distilled water. […] The data were expressed as mean and standard deviation. […]

STZ mice = assay: Blood glucose in mouse type II diabetes model with pancreatic islet damage and obesity, STZ plus high-fat diet (Example 5); details: STZ + high-fat diet ICR mice; single agent 0.5 g/kg per day by gavage, two weeks; 1 h after last administration; mean ± SD
Excerpt: Effects of limonoid compound, acarbose or combination thereof on blood glucose in mouse type II diabetes model with pancreatic islet damage and obesity
In this example, a mouse model of type II diabetes with pancreatic islet damage and obesity was established by multiple modeling ICR mice with a small dose of streptozotocin (STZ), following with continuous high-fat diets (referring to literature: Zhang Jiyuan et al, Study on the effect of three plant extracts on improving glucose and lipid metabolism in type 2 diabetic mice, Food and Machinery, 2016, 32 (12): 142-147). […]
Experimental grouping: 15 male mice were randomly selected as the normal control group, and the remaining mice were subjected to a high-fat diet (high-fat diet formula: cholesterol 1%, egg yolk powder 10%, lard oil 10%, and basic feed 79%, for establishing an obesity mouse model) for consecutive 4 weeks and intraperitoneal injection of STZ at a dose of 35mg/kg for three consecutive days. After one week, the mice were subject to 24 hours of fasting and water deprivation, their fasting blood glucose was measured, and the mice with a blood glucose level of 15 to 25 mmol/L were selected and undifferentiatedly grouped and used in the experiment, continuously subjected to the high-fat diet, 15 mice in each group, and subjected to blood sampling and detection of indicators after 2 weeks of administration. […]

db/db mice [3] = assay: Blood glucose in mouse type II diabetes model, db/db mice (Example 2); details: single agent 0.04 g/kg per day by gavage, two weeks, 1 h after last administration, mean ± SD
Excerpt: (§4) Effects of limonoid compound, acarbose or combination thereof on blood glucose and leptin in mouse type II diabetes model
(§5) In the present example, db/db mice (line name BKS.Cg-Dock7^m+/+Lepr^db/Nju) were used to perform hypoglycemic efficacy evaluation test of animals (blood glucose level and leptin). The limonoid compound was selected from obacunone, isoobacunoic acid and obacunone glycoside, and acarbose single administration group, obacunone single administration group, isoobacunoic acid single administration group, obacunone glycoside single administered group, and respective combination thereof with acarbose administration groups were set.
as §3, with “feed.” for “feed. The experimental feed was mouse growth-stable feed (GB M2118), and the daily feeding and management of the animals were under the responsibility of the animal security department, which provided the animals with sufficient diet and fresh drinking water daily.”

db/db mice [4] = assay: Serum leptin by Elisa in db/db mice (Example 2); details: single agent 0.04 g/kg per day by gavage, two weeks, mean ± SD
Excerpt: as §4, §5
as §3, with “feed.” for “feed. The experimental feed was mouse growth-stable feed (GB M2118), and the daily feeding and management of the animals were under the responsibility of the animal security department, which provided the animals with sufficient diet and fresh drinking water daily.”

For nomilin acid, the Insulin (db/db mice [1]) was 8.08 ± 1.49 pg/mL.

Molecule CC1(C)OC(=O)C[C@H](O)[C@]2(C)[C@H]3CC[C@@]4(C)[C@H](c5ccoc5)OC(=O)[C@H]5O[C@]54[C@]3(C)C(=O)C[C@@H]12 [Deacetylnomilin, deacetylnomilin] has a Blood glucose value (db/db mice [2]) of 11.9 ± 2.9 mmol/L.

For CC(=O)O[C@@H]1CC(=O)OC(C)(C)[C@@H]2CC(=O)[C@]3(C)[C@H](CC[C@@](C)(C(O[C@@H]4O[C@H](CO)[C@@H](O)[C@H](O)[C@H]4O)c4ccoc4)C34OC4C(=O)O)[C@@]12C (stereo partly drawn) [Nomilin glycoside, nomilin glycoside], the Blood glucose value (STZ mice) was 12.8 ± 2.9 mmol/L.

For CC(=O)O[C@H]1CC(=O)OC(C)(C)[C@@H]2CC(=O)[C@]3(C)[C@H](CC[C@@]4(C)[C@H](c5ccoc5)OC(=O)[C@H]5O[C@]543)[C@@]12C [Nomilin, nomilin], the Blood glucose value (db/db mice [2]) was 10.1 ± 3.9 mmol/L.

CC1(C)OC(=O)C=C[C@]2(C)[C@H]3CC[C@@](C)([C@@H](O[C@@H]4O[C@H](CO)[C@@H](O)[C@H](O)[C@H]4O)c4ccoc4)[C@@]4(O[C@@H]4C(=O)O)[C@]3(C)C(=O)C[C@@H]12 [Obacunone glycoside, obacunone glycoside] was tested, and the Blood glucose value (db/db mice [3]) was 13.7 ± 2.9 mmol/L and the Leptin (db/db mice [4]) was 28.55 ± 4.00 pg/mL.

— patent US20220296566A1, “COMBINATION PRODUCT CONTAINING LIMONOID COMPOUND AND ALPHA-GLUCOSIDASE INHIBITOR” (ZHEJIANG YANGSHENGTANG INSTITUTE OF NATURAL MEDICATION CO., …, priority 2019, published 2022)
